According to the supplement of paper PMC10307832:

Experiments:
Assay in all cases: relative viability (nuclei count vs DMSO), 5 days (fraction); higher = more cells survive
201T = test system: 201T
Outline: (§1)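 After 5 days of treatment, lung cancer cells in 1536-well plates were fixed and stained in a single step (final 0.05% Triton X-100, 1% formaldehyde, 1 ug/ml Hoechst) and their nuclei counted on 4× images. Treatment had been applied by pin tool the day after seeding as one drug alone or as a fixed anchor-drug dose with five library-drug doses (not always all listed) in √10 steps. Relative viability is the nuclei count of treated wells divided by that of vehicle wells, and values are medians of duplicate plates.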

COR-L 105 = test system: COR-L 105
Outline: as §1

ChaGo-K-1 = test system: ChaGo-K-1
Outline: as §1

EPLC-272H = test system: EPLC-272H
Outline: as §1

H3255 = test system: H3255
Outline: as §1

HCC-78 = test system: HCC-78
Outline: as §1

HCC-827 = test system: HCC-827
Outline: as §1

LC-2-ad = test system: LC-2-ad
Outline: as §1

LCLC-97TM1 = test system: LCLC-97TM1
Outline: as §1

NCI-H1666 = test system: NCI-H1666
Outline: as §1

NCI-H1915 = test system: NCI-H1915
Outline: as §1

NCI-H2087 = test system: NCI-H2087
Outline: as §1

NCI-H2126 = test system: NCI-H2126
Outline: as §1

NCI-H2347 = test system: NCI-H2347
Outline: as §1

NCI-H23 = test system: NCI-H23
Outline: as §1

NCI-H2405 = test system: NCI-H2405
Outline: as §1

NCI-H322M = test system: NCI-H322M
Outline: as §1

NCI-H520 = test system: NCI-H520
Outline: as §1

NCI-H647 = test system: NCI-H647
Outline: as §1

NCI-H650 = test system: NCI-H650
Outline: as §1

NCI-H661 = test system: NCI-H661
Outline: as §1

PC-14 = test system: PC-14
Outline: as §1

RERF-LC-KJ = test system: RERF-LC-KJ
Outline: as §1

O=C(O)c1ccc(-c2c[nH]c3ncc(-c4ccccc4)cc23)cc1C1CCCC1 + Cc1nc(Nc2ncc(C(=O)Nc3c(C)cccc3Cl)s2)cc(N2CCN(CCO)CC2)n1 [Dasatinib] (partner 0.075 µM)
relative viability (201T; first compound 0.04 µM): 0.58 | relative viability (201T; first compound 0.1265 µM): 0.599 | relative viability (201T; first compound 0.4 µM): 0.523 | relative viability (201T; first compound 1.265 µM): 0.534 | relative viability (COR-L 105; first compound 0.04 µM): 0.318 | relative viability (COR-L 105; first compound 0.1265 µM): 0.376 | relative viability (COR-L 105; first compound 0.4 µM): 0.383 | relative viability (COR-L 105; first compound 1.265 µM): 0.391 | relative viability (ChaGo-K-1; first compound 0.04 µM): 0.602 | relative viability (ChaGo-K-1; first compound 0.1265 µM): 0.632 | relative viability (ChaGo-K-1; first compound 0.4 µM): 0.518 | relative viability (ChaGo-K-1; first compound 1.265 µM): 0.604 | relative viability (EPLC-272H; first compound 0.04 µM): 0.331 | relative viability (EPLC-272H; first compound 0.1265 µM): 0.416 | relative viability (EPLC-272H; first compound 0.4 µM): 0.328 | relative viability (EPLC-272H; first compound 1.265 µM): 0.337 | relative viability (H3255; first compound 0.04 µM): 0.378 | relative viability (H3255; first compound 0.1265 µM): 0.6 | relative viability (H3255; first compound 0.4 µM): 0.348 | relative viability (H3255; first compound 1.265 µM): 0.473 | relative viability (HCC-78; first compound 0.1265 µM): 0.516 | relative viability (HCC-78; first compound 0.4 µM): 0.485 | relative viability (HCC-78; first compound 1.265 µM): 0.406 | relative viability (HCC-827; first compound 0.04 µM): 0.339 | relative viability (HCC-827; first compound 0.1265 µM): 0.294 | relative viability (HCC-827; first compound 0.4 µM): 0.348 | relative viability (HCC-827; first compound 1.265 µM): 0.381 | relative viability (LC-2-ad; first compound 0.04 µM): 0.505 | relative viability (LC-2-ad; first compound 0.1265 µM): 0.813 | relative viability (LC-2-ad; first compound 0.4 µM): 0.489 | relative viability (LC-2-ad; first compound 1.265 µM): 0.463 | relative viability (LCLC-97TM1; first compound 0.04 µM): 0.836 | relative viability (LCLC-97TM1; first compound 0.1265 µM): 0.893 | relative viability (LCLC-97TM1; first compound 0.4 µM): 0.881 | relative viability (LCLC-97TM1; first compound 1.265 µM): 0.686 | relative viability (NCI-H1666; first compound 0.04 µM): 0.858 | relative viability (NCI-H1666; first compound 0.1265 µM): 0.928 | relative viability (NCI-H1666; first compound 0.4 µM): 0.832 | relative viability (NCI-H1666; first compound 1.265 µM): 0.501 | relative viability (NCI-H1915; first compound 0.04 µM): 0.297 | relative viability (NCI-H1915; first compound 0.1265 µM): 0.331 | relative viability (NCI-H1915; first compound 0.4 µM): 0.277 | relative viability (NCI-H1915; first compound 1.265 µM): 0.271 | relative viability (NCI-H2087; first compound 0.04 µM): 0.752 | relative viability (NCI-H2087; first compound 0.1265 µM): 0.778 | relative viability (NCI-H2087; first compound 0.4 µM): 0.896 | relative viability (NCI-H2087; first compound 1.265 µM): 0.661 | relative viability (NCI-H2126; first compound 0.04 µM): 0.641 | relative viability (NCI-H2126; first compound 0.1265 µM): 0.634 | relative viability (NCI-H2126; first compound 0.4 µM): 0.642 | relative viability (NCI-H2126; first compound 1.265 µM): 0.488 | relative viability (NCI-H2347; first compound 0.04 µM): 0.275 | relative viability (NCI-H2347; first compound 0.1265 µM): 0.799 | relative viability (NCI-H2347; first compound 0.4 µM): 0.298 | relative viability (NCI-H2347; first compound 1.265 µM): 0.299 | relative viability (NCI-H23; first compound 0.04 µM): 0.82 | relative viability (NCI-H23; first compound 0.1265 µM): 1.04 | relative viability (NCI-H23; first compound 0.4 µM): 0.729 | relative viability (NCI-H23; first compound 1.265 µM): 0.717 | relative viability (NCI-H2405; first compound 0.04 µM): 0.207 | relative viability (NCI-H2405; first compound 0.1265 µM): 0.253 | relative viability (NCI-H2405; first compound 0.4 µM): 0.191 | relative viability (NCI-H2405; first compound 1.265 µM): 0.191 | relative viability (NCI-H322M; first compound 0.04 µM): 0.277 | relative viability (NCI-H322M; first compound 0.1265 µM): 0.267 | relative viability (NCI-H322M; first compound 0.4 µM): 0.239 | relative viability (NCI-H322M; first compound 1.265 µM): 0.237 | relative viability (NCI-H520; first compound 0.04 µM): 0.199 | relative viability (NCI-H520; first compound 0.1265 µM): 0.203 | relative viability (NCI-H520; first compound 0.4 µM): 0.253 | relative viability (NCI-H520; first compound 1.265 µM): 0.222 | relative viability (NCI-H647; first compound 0.04 µM): 0.172 | relative viability (NCI-H647; first compound 0.1265 µM): 0.24 | relative viability (NCI-H647; first compound 0.4 µM): 0.178 | relative viability (NCI-H647; first compound 1.265 µM): 0.139 | relative viability (NCI-H650; first compound 0.04 µM): 0.43 | relative viability (NCI-H650; first compound 0.1265 µM): 0.502 | relative viability (NCI-H650; first compound 0.4 µM): 0.405 | relative viability (NCI-H650; first compound 1.265 µM): 0.353 | relative viability (NCI-H661; first compound 0.04 µM): 0.852 | relative viability (NCI-H661; first compound 0.1265 µM): 1.1 | relative viability (NCI-H661; first compound 0.4 µM): 0.792 | relative viability (NCI-H661; first compound 1.265 µM): 0.797 | relative viability (PC-14; first compound 0.04 µM): 0.245 | relative viability (PC-14; first compound 0.1265 µM): 0.258 | relative viability (PC-14; first compound 0.4 µM): 0.281 | relative viability (PC-14; first compound 1.265 µM): 0.286 | relative viability (RERF-LC-KJ; first compound 0.04 µM): 0.758 | relative viability (RERF-LC-KJ; first compound 0.1265 µM): 0.778 | relative viability (RERF-LC-KJ; first compound 0.4 µM): 0.783 | relative viability (RERF-LC-KJ; first compound 1.265 µM): 0.687
